# Assay results from the NIST ThermoML archive (doi:10.1021/je800218g).
# ± gives the expanded uncertainty stated by the source.
# Experiment: activity coefficient (dimensionless); of the first substance listed, at infinite dilution; xn = mol fraction of the nth substance listed
# Details: Liquid, Chromatography, x1 = 0
Structure (SMILES),activity coefficient (303.15 K),activity coefficient (313.15 K),activity coefficient (323.15 K),activity coefficient (333.15 K),activity coefficient (343.15 K),activity coefficient (353.15 K),activity coefficient (363.15 K)
CCc1ccccc1 [ethylbenzene] + CCn1cc[n+](C)c1.F[B-](F)(F)F,6.49 ± 0.68,6.3 ± 0.66,6.11 ± 0.64,5.89 ± 0.62,5.58 ± 0.59,5.44 ± 0.57,5.31 ± 0.56
CCCCCCCCCC [decane] + CCn1cc[n+](C)c1.F[B-](F)(F)F,1110 ± 120,984 ± 100,861 ± 91,751 ± 79,643 ± 68,545 ± 58,456 ± 48
ClC(Cl)Cl [trichloromethane] + CCn1cc[n+](C)c1.F[B-](F)(F)F,1.36 ± 0.14,1.38 ± 0.14,1.39 ± 0.14,1.41 ± 0.15,1.43 ± 0.15,1.46 ± 0.15,1.5 ± 0.15
"Cc1cccc(C)c1 [1,3-dimethylbenzene] + CCn1cc[n+](C)c1.F[B-](F)(F)F",5.88 ± 0.62,5.71 ± 0.6,5.57 ± 0.59,5.32 ± 0.56,5.17 ± 0.54,4.98 ± 0.52,4.83 ± 0.51
CCCCCCC [heptane] + CCn1cc[n+](C)c1.F[B-](F)(F)F,154 ± 16,138 ± 15,124 ± 13,111 ± 12,104 ± 11,96 ± 10,90.4 ± 9.5
CCCCCC [hexane] + CCn1cc[n+](C)c1.F[B-](F)(F)F,101 ± 11,95.3 ± 10,90.6 ± 9.5,85.3 ± 9,77.4 ± 8.2,74.5 ± 7.8,69.5 ± 7.3
ClCCl [dichloromethane] + CCn1cc[n+](C)c1.F[B-](F)(F)F,1.12 ± 0.12,1.16 ± 0.12,1.21 ± 0.12,1.25 ± 0.13,1.32 ± 0.14,1.36 ± 0.14,1.39 ± 0.14
"Cc1ccc(C)cc1 [1,4-dimethylbenzene] + CCn1cc[n+](C)c1.F[B-](F)(F)F",5.41 ± 0.57,5.3 ± 0.56,5.14 ± 0.54,5.03 ± 0.53,4.96 ± 0.52,4.88 ± 0.51,4.76 ± 0.5
"C1COCCO1 [1,4-dioxane] + CCn1cc[n+](C)c1.F[B-](F)(F)F",1.35 ± 0.14,1.4 ± 0.14,1.42 ± 0.15,1.44 ± 0.15,1.47 ± 0.15,1.49 ± 0.15,1.51 ± 0.16
ClC(Cl)(Cl)Cl [tetrachloromethane] + CCn1cc[n+](C)c1.F[B-](F)(F)F,4.31 ± 0.45,4.41 ± 0.46,4.56 ± 0.48,4.66 ± 0.49,4.8 ± 0.5,4.89 ± 0.51,4.98 ± 0.52
C1CCOC1 [tetrahydrofuran] + CCn1cc[n+](C)c1.F[B-](F)(F)F,1.87 ± 0.2,1.85 ± 0.19,1.83 ± 0.19,1.82 ± 0.19,1.8 ± 0.19,1.77 ± 0.18,1.74 ± 0.18
"CC(C)CC(C)(C)C [2,2,4-trimethylpentane] + CCn1cc[n+](C)c1.F[B-](F)(F)F",158 ± 17,143 ± 15,124 ± 13,112 ± 12,101 ± 11,85.8 ± 9,75.3 ± 7.9
"Cc1ccccc1C [1,2-dimethylbenzene] + CCn1cc[n+](C)c1.F[B-](F)(F)F",4.73 ± 0.5,4.69 ± 0.49,4.64 ± 0.49,4.58 ± 0.48,4.5 ± 0.47,4.41 ± 0.46,4.34 ± 0.46
c1ccccc1 [benzene] + CCn1cc[n+](C)c1.F[B-](F)(F)F,2.13 ± 0.22,2.11 ± 0.22,2.09 ± 0.22,2.05 ± 0.21,2.02 ± 0.21,1.99 ± 0.21,1.96 ± 0.21
CC1CCCCC1 [methylcyclohexane] + CCn1cc[n+](C)c1.F[B-](F)(F)F,93 ± 9.8,79.7 ± 8.4,67.7 ± 7.1,58.9 ± 6.2,51.4 ± 5.4,43.3 ± 4.6,32.3 ± 3.4
CC(C)=O [acetone] + CCn1cc[n+](C)c1.F[B-](F)(F)F,1.23 ± 0.13,1.26 ± 0.13,1.27 ± 0.13,1.29 ± 0.13,1.31 ± 0.14,1.33 ± 0.14,1.33 ± 0.14
CCCCCCCC [octane] + CCn1cc[n+](C)c1.F[B-](F)(F)F,216 ± 23,201 ± 21,187 ± 20,173 ± 18,158 ± 17,149 ± 16,140 ± 15
CC#N [acetonitrile] + CCn1cc[n+](C)c1.F[B-](F)(F)F,0.892 ± 0.091,0.875 ± 0.09,0.853 ± 0.087,0.832 ± 0.085,0.814 ± 0.084,0.792 ± 0.082,0.769 ± 0.079
CCOC(C)=O [ethyl acetate] + CCn1cc[n+](C)c1.F[B-](F)(F)F,2.94 ± 0.31,2.92 ± 0.31,2.89 ± 0.3,2.87 ± 0.3,2.83 ± 0.3,2.79 ± 0.29,2.75 ± 0.29
Cc1ccccc1 [toluene] + CCn1cc[n+](C)c1.F[B-](F)(F)F,3.68 ± 0.39,3.66 ± 0.38,3.62 ± 0.38,3.56 ± 0.37,3.52 ± 0.37,3.48 ± 0.37,3.4 ± 0.36
C1=CCCCC1 [cyclohexene] + CCn1cc[n+](C)c1.F[B-](F)(F)F,21.8 ± 2.3,19.6 ± 2.1,16.6 ± 1.8,14.4 ± 1.5,12.8 ± 1.3,10.5 ± 1.1,9.13 ± 0.96
C=Cc1ccccc1 [styrene] + CCn1cc[n+](C)c1.F[B-](F)(F)F,3.38 ± 0.35,3.44 ± 0.36,3.49 ± 0.37,3.56 ± 0.37,3.62 ± 0.38,3.65 ± 0.38,3.73 ± 0.39
CCCCCCCCC [nonane] + CCn1cc[n+](C)c1.F[B-](F)(F)F,319 ± 34,294 ± 31,272 ± 29,254 ± 27,248 ± 26,235 ± 25,224 ± 24
CCCCC [pentane] + CCn1cc[n+](C)c1.F[B-](F)(F)F,68.8 ± 7.2,62.5 ± 6.6,57.6 ± 6.1,53.9 ± 5.7,49 ± 5.2,45.7 ± 4.8,42.1 ± 4.4
C1CCCCC1 [cyclohexane] + CCn1cc[n+](C)c1.F[B-](F)(F)F,70.5 ± 7.4,60.9 ± 6.4,49.7 ± 5.2,39.6 ± 4.2,31.2 ± 3.3,27.5 ± 2.9,21.9 ± 2.3
